The text below walks through data of US10098867B2, “Use of phytocannabinoids in the treatment of ovarian carcinoma” (GW Research Limited, priority 2013, dated 2018).

Experiment [1] has as its system ovarian carcinoma cell line, A2780. Put plainly: MTT cell viability assay, combinations of phytocannabinoids (Example 2). The note with it: Homo sapiens, A2780 cells. Type of experiment: cell-based. As for the experimental part:
(§1) An ovarian carcinoma cell line, A2780 was grown and maintained in RPMI 1640 medium supplemented with 10% fetal bovine serum at 37° C., 5% CO2. The cells were plated in 96-well culture plates at a density of 1×10^4 cells/well and allowed to adhere at 37° C. for 24 hours.
The different phytocannabinoid combinations that were tested were: A: cannabidiol (CBD) in combination with tetrahydrocannabivarin (THCV) and B: CBD in combination with cannabigerol (CBG).
The cells were starved with 1% serum overnight. In Experiment A various doses of CBD (1 nM-10 μM) were tested in the absence or presence of 1 hours pre-treatment of THCV (1 μM) for various incubation periods. In Experiment B various doses of CBD (1 nM-10 μM) were tested in the absence or presence of CBG (1 nM-100 μM) for various incubation periods.
A cell viability assay, MTT, was performed following four different incubation times of 24 hours, 48 hours (CBG combination only), 72 hours and 96 hours.
(§2) The supernatant was removed and MTT (3-(4,5-dimethylthiazol-2-yl)-2,5-diphenyltetrazolium bromide) was added for 4 hours. The ability of cells to form formazan crystals by active mitochondrial respiration was determined by using a Microplate reader after dissolving the crystals in DMSO.
(§3) Cytotoxicity was expressed as a relative percentage of the absorbance measured at 540 nm in the control and drug-treated cells. IC50 values were also calculated.
(§4) In all experiments data were presented as the mean and analysed using ANOVA followed by Dunnet's t-test; n=4.
A general note: Tetrazolium dyes change colour on reduction, which living cells bring about.

The test system is the same in experiment [2]. Kind of experiment: MTT cell viability assay, single phytocannabinoids (Example 1). The format is cell-based. The note with it: A2780 cells; for IC50: MTT. As for the experimental part: as §1
The cells were starved with 1% serum overnight, then treated with various concentrations of different phytocannabinoid ([…]) for various incubation periods.
The different phytocannabinoids tested were: cannabidiol (CBD); cannabidiol acid (CBDA); cannabigerol (CBG); cannabigerolic acid (CBGA); cannabigerol propyl variant (CBGV); and tetrahydrocannabivarin (THCV).
A cell viability assay, MTT, was performed following four different incubation times of 24 hours, 48 hours, 72 hours and 96 hours.
as §2, §3, §4

The mark [3] stands for this setting: A2780, 24 h, Experiment A (CBD with or without 1 hour pre-treatment with THCV 1 μM), 24 hours.
Where [4] appears, read: A2780, 72 h, Experiment A (CBD with or without 1 hour pre-treatment with THCV 1 μM), 72 hours.
[5] abbreviates: A2780, 96 h, Experiment A (CBD with or without 1 hour pre-treatment with THCV 1 μM), 96 hours.
[6] abbreviates: Homo sapiens, 24 hours incubation.
Setting [7] is: Homo sapiens, 48 hours incubation.
[8] abbreviates: Homo sapiens, 72 hours incubation.
Where [9] appears, read: Homo sapiens, 96 hours incubation.
Setting [10] is: A2780, 24 h, Experiment B (CBD in absence or presence of CBG), 24 hours.
Setting [11] is: A2780, 48 h, Experiment B (CBD in absence or presence of CBG), 48 hours.
Where [12] appears, read: A2780, 72 h, Experiment B (CBD in absence or presence of CBG), 72 hours.
Where [13] appears, read: A2780, 96 h, Experiment B (CBD in absence or presence of CBG), 96 hours.
[14] abbreviates: 24 hours after the cannabinoids were added.

As for `CCCc1cc(O)c2c(c1)OC(C)(C)[C@@H]1CCC(C)=C[C@@H]21` [THCV, Tetrahydrocannabivarin], the IC50 in experiment [1] (setting [3]) was 16.2 µM; in experiment [1] (setting [4]) it was 14.8 µM; in experiment [1] (setting [5]) it was 10.5 µM; in experiment [2] (setting [6]) it was 8 µM; in experiment [2] (setting [7]), 5.75 µM; in experiment [2] (setting [8]), 8.75 µM. This molecule also displayed an IC50 in experiment [2] (setting [9]) of 9 µM.

Cannabigerolic acid [CBGA]: the IC50 worked out at 12.5 µM in experiment [2] (24 hours incubation), 9.9 µM in experiment [2] (48 hours incubation) and 9.25 µM in experiment [2] (72 hours incubation).

With `CCCCCc1cc(O)c(C/C=C(\C)CCC=C(C)C)c(O)c1` [CBG, Cannabigerol], the IC50 in experiment [1] (setting [10]) is 13.9 µM; in experiment [1] (setting [11]), 9.48 µM; in experiment [1] (setting [12]) it was 9.96 µM; in experiment [1] (setting [13]), 8.96 µM; in experiment [2] (setting [6]) it was 2 µM; in experiment [2] (setting [7]), 0.83 µM. For the same molecule, the IC50 in experiment [2] (setting [8]) is 0.85 µM; in experiment [2] (setting [9]) it was 3.38 µM. Besides, the potency in words result in experiment [2] (setting [14]) was “very potent”; in experiment [2] (after 48 hours), “marginally more potent than CBD”.

Consider `C=C(C)[C@@H]1CCC(C)=C[C@H]1c1c(O)cc(CCCCC)cc1O` [CBD, Cannabidiol], for which the IC50 came to 12.5 µM in experiment [1] (setting [3]); 11.8 µM in experiment [1] (setting [10]); 6.85 µM in experiment [1] (setting [11]); 5.87 µM in experiment [1] (setting [4]); 7.92 µM in experiment [1] (setting [12]); 5.62 µM in experiment [1] (setting [5]). Besides, the IC50 in experiment [1] (setting [13]) amounted to 4.43 µM; in experiment [2] (setting [6]), 0.98 µM; in experiment [2] (setting [7]), 0.95 µM; in experiment [2] (setting [8]), 1.9 µM; in experiment [2] (setting [9]), 3.63 µM. Besides, the potency in words entry in experiment [2] (setting [14]) is “very potent”.

Consider `CCCc1cc(O)c(C/C=C(\C)CCC=C(C)C)c(O)c1` [CBGV, Cannabigerol propyl variant], for which the IC50 was 6 µM in experiment [2] (setting [6]), 3.5 µM in experiment [2] (setting [7]) and 4 µM in experiment [2] (setting [8]).

In the case of `C=C(C)[C@@H]1CCC(C)=C[C@H]1c1c(O)cc(CCCCC)c(C(=O)O)c1O` [CBDA, Cannabidiolic acid], the IC50 came out at 16 µM in experiment [2] (setting [6]), 9.5 µM in experiment [2] (setting [7]), 10 µM in experiment [2] (setting [8]) and 11.8 µM in experiment [2] (setting [9]).

The IC50 is the concentration at which inhibition is half-maximal.
